Source: US9775348B2, “Composition comprising a sesterterpene and use thereof as antibiotic and antifungal adjuvant” (RODE PHARMA S.R.L., priority 2012, dated 2017)

How the values were obtained:
Assay type in all cases: cell-based
[1] = tested on: Aspergillus niger, ATCC 16404; test: Fungal test, inhibition halo in Petri dish with central well; conditions: tests with well, 25° C.
Method: (§1) A study about the efficacy of the composition of the present invention to some fungi was conducted. The compositions were tested according to the MIC method. The methodology being used is herein reported.
(§2) The tested fungi strains were as follows: i) Aspergillus niger, ATCC 16404; ii) Trichoderma viride, ATCC 28020; iii) Penicillium funiculosum ATCC 9644 and iv) Chaetomium globosum, ATCC 16021.
(§3) For each strain, time by time, a culture in liquid nutrient medium such as SABORAUD DEXEROSE AGAR was made.
(§4) Freshly-made subcultures were created, and incubated until obtaining an estimated density of […]. The estimate was obtained by spectrophotometric measurement of absorption at 530 nm.
(§5) Bacteriostatic tests: The tests were performed by placing fungal culture aliquots (set forth in the tables below) in Petri dishes with a central well (1 centimeter diameter) in which the product to be tested was poured. All the plates were incubated at 25° C. The incubation time for solutions A, B, C, D, E and F was 72 hours, while for products. M1, M2 and M3 the time was 30 hours.
(§6) The results are expressed as inhibition halo diameter being measured over each plate. […] Consequently, a 0 mm diameter denotes an undetectable halo. The described values indicate the average from the minimum and maximum values of halos for each test. Values are expressed in mm of inhibition.

[2] = tested on: Penicillium funiculosum ATCC 9644; test: as above; conditions: tests with well, 25° C.
Method: as §1, §2, §3, §4, §5, §6

[3] = tested on: Chaetomium globosum, ATCC 16021; test: as above; conditions: tests with well, 25° C.
Method: as §1, §2, §3, §4, §5, §6

[4] = tested on: Trichoderma viride, ATCC 28020; test: as above; conditions: tests with well, 25° C.
Method: as §1, §2, §3, §4, §5, §6

[5] = tested on: Escherichia coli ATCC 25922; test: Bacteriostatic test, inhibition halo in Petri dish with central well; conditions: 2 cc of a 0.7% solution equal to 35 mg, diameter does not include the 10 mm central well
Method: (§7) A study about the efficacy of a gascardic acid-based composition referred to as M3 was conducted against some publicly available pathogenic bacteria such as (1) Staphylococcus aureus—ATCC 25923 (190×10^6 UFC/ml) (2) Pseudomonas aeruginosa—ATCC 15442 (305×10^6 UFC/ml) and (3) Escherichia coli—ATCC 25922 (300×10^6 UFC/ml). The composition M3 was tested according to MIC method.
(§8) The method was carried out as follows. Time by time, a culture of the above-mentioned strains was prepared in a Tryptic soy Agar type growth medium. Freshly-made subcultures were prepared, and incubated until obtaining an estimated density of 1×10^6 cells per ml of culture. The assessment was obtained by spectrophotometric measurement of absorption at known wavelengths.
(§9) The bacteriostatic tests were performed by placing the bacterial culture in Petri dishes with a central well of 1 cm diameter, containing the 2 cc aliquot of composition M3. Then, the freshly-made subculture was plated over the surrounding medium. Next, the Petri dishes were placed in a thermostatic environment at 30° C. and examined after 24 and 48 ore.
(§10) The results are expressed as inhibition halo diameter measured over each Petri dish. […] Consequently, a zero mm (0 mm) diameter denotes an undetectable halo. The given average values are obtained by considering the minimum and maximum value of each halo.
(§11) According to the above-described MIC method, a test where the pathogenic bacteria (1) Staphylococcus aureus ATCC 25923 (2) Pseudomonas aeruginosa ATCC 15442 and (3) Escherichia coli ATCC 25922 were tested along using composition M5 and composition M5+M3 was conducted.

[6] = tested on: Pseudomonas aeruginosa ATCC 15442; test: as above; conditions: 2 cc of a 0.7% solution equal to 35 mg, diameter does not include the 10 mm central well
Method: as §7, §8, §9, §10, §11

[7] = tested on: Staphylococcus aureus ATCC 25923; test: as above; conditions: 2 cc of a 0.7% solution equal to 35 mg, diameter does not include the 10 mm central well
Method: as §7, §8, §9, §10, §11

[8] = tested on: fungi; test: Fungal tests, overall conclusion versus fluconazole; conditions: 0.07 mg versus 2 mg (about 1:28 ratio); alone or combined with each other
Method: as §1, §2, §5, §6

[9] = incubation 72 hours, 1 cc per plate
[10] = incubation 30 hours, 1 cc (0.07 mg of compound)

Compound	mm of inhibition (inhibition halo diameter) [1, 9]	mm of inhibition (inhibition halo diameter) [2, 9]	mm of inhibition (inhibition halo diameter) [3, 9]	mm of inhibition (inhibition halo diameter) [4, 9]	Halo in mm (inhibition halo diameter) [5]	Halo in mm (inhibition halo diameter) [6]	Halo in mm (inhibition halo diameter) [7]	fungicidal activity compared with M4 (fluconazole) [8]	mm of inhibition (inhibition halo diameter) [1, 10]	mm of inhibition (inhibition halo diameter) [2, 10]	mm of inhibition (inhibition halo diameter) [3, 10]	mm of inhibition (inhibition halo diameter) [4, 10]
OC(Cn1cncn1)(Cn1cncn1)c1ccc(F)cc1F [Test A, Fluconazole, reference compound]	1 mm	0 mm	11-17 mm	0 mm	–	–	–	–	–	–	–	–
Gascardic acid [Test M3]	–	–	–	–	6 mm	6 mm	8 mm	strong fungicidal activity than M4	15-18 mm	15-20 (*) mm	19-26 mm	16-27 mm
C[C@H]1C(=O)CC[C@@H]2[C@]1(C)CC[C@H]1[C@@]2(C)CC[C@@]2(C)[C@@H]3CC(C)(C)CC[C@]3(C)CC[C@]12C [Test M2, Fridelin]	–	–	–	–	–	–	–	strong fungicidal activity than M4	3-4 mm	1-1.5 mm	5-11 (*) mm	2-6 mm
C=C(C)[C@@H]1CC[C@]2(C(=O)O)CC[C@]3(C)[C@H](CC[C@@H]4[C@@]5(C)CC[C@H](O)C(C)(C)[C@@H]5CC[C@]43C)[C@@H]12 [Test M1, Betulinic acid]	–	–	–	–	–	–	–	–	15-16 mm	12-18 (*) mm	22-26 mm	31-34 (*) mm
